Results reported in BigSolDB 2.1.

C[C@@H]1CC[C@H]2[C@@H](C)C(=O)O[C@@H]3O[C@@]4(C)CC[C@@H]1[C@]32OO4
solubility (mole fraction)
Details | 283.15 K | 288.15 K | 293.15 K | 298.15 K | 303.15 K | 308.15 K | 313.15 K | 318.15 K | 323.15 K
in acetone | 0.00388 | 0.0051 | 0.00673 | 0.00863 | 0.0114 | 0.0145 | 0.0181 | 0.0223 | 0.0278
in acetonitrile | 0.000198 | 0.000257 | 0.000356 | 0.000518 | 0.000723 | 0.00103 | 0.00143 | 0.00196 | 0.0027
in chloroform | 0.0487 | 0.0613 | 0.0795 | 0.101 | 0.127 | 0.157 | 0.193 | 0.236 | 0.287
in cyclohexane | 0.00044 | 0.000585 | 0.000745 | 0.00106 | 0.00137 | 0.00171 | 0.00209 | 0.00265 | 0.00341
in ethyl acetate | 0.00525 | 0.00786 | 0.0117 | 0.0153 | 0.0205 | 0.0282 | 0.0377 | 0.0499 | 0.0657
in methanol | 0.000559 | 0.000773 | 0.00111 | 0.00145 | 0.00195 | 0.00267 | 0.00375 | 0.00477 | 0.00622
in toluene | 0.0375 | 0.0435 | 0.052 | 0.0603 | 0.0711 | 0.0815 | 0.0937 | 0.107 | 0.122
